Results from ChEMBL document CHEMBL4145467, “Glycogen synthase kinase-3 and its inhibitors: Potential target for various therapeutic conditions” (Eur J Med Chem, 2018).
Blank lines part the entries; values can stand above or below the compound they belong to.

Columns and labels:
[1] = Inhibition of recombinant rabbit GSK-3beta assessed as decrease in PPI-2 phosphorylation in presence of 33P-ATP after 90 mins by topcount scintillation counting; parameters: species or system Oryctolagus cuniculus
[2] = target: T1, Glycogen synthase kinase-3 alpha (Homo sapiens, UniProt P49840); experiment: Inhibition of human GSK3alpha
T1 sequence (P49840 whole entry): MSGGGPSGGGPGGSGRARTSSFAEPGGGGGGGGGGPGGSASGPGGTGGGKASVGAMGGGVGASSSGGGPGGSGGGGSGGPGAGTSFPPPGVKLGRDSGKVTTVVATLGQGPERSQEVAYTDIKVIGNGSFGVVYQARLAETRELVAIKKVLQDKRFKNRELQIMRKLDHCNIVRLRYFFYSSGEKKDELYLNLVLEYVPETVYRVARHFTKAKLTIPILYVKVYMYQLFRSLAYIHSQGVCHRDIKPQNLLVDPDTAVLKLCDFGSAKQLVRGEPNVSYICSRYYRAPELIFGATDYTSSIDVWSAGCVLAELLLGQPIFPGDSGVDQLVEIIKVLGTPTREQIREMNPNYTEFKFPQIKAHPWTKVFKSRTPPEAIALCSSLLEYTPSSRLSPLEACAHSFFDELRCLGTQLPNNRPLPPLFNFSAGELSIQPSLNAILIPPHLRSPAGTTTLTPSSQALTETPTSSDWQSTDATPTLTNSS

[3] = target: T2, Glycogen synthase kinase-3 beta (Homo sapiens, UniProt P49841); experiment: Inhibition of recombinant GSK3-beta (unknown origin) assessed as decrease in phosphorylation of CREB at serine-129 in presence of ATP[gamma-33P] by filter binding assay
Target sequence in this assay (P49841 whole entry): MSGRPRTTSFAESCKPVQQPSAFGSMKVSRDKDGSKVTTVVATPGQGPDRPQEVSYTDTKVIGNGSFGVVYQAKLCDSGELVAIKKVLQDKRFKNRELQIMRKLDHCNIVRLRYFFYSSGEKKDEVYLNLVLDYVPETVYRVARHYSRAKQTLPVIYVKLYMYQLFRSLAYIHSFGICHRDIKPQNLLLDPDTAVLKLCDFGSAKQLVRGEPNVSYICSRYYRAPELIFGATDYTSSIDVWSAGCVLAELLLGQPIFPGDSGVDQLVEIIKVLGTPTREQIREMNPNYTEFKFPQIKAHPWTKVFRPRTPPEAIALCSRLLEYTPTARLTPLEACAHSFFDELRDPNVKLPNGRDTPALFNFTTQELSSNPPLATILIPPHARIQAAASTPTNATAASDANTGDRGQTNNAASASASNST

[4] = target: T1, Glycogen synthase kinase-3 alpha; experiment: Inhibition of human GSK3alpha using biotin-Ahx-AAAKRREILSRRP-S(PO3)YR-amide as substrate after 40 mins in presence of [33gammaP]-ATP by SPA
[5] = system: MCF7; experiment: Cytotoxicity against human MCF7 cells assessed as reduction in cell viability after 68 hrs by MTT assay; assay type: functional, cell-based; conditions: MCF7, 68 h
[6] = target: Glycogen synthase kinase 3 beta (Sus scrofa, UniProt B2LUN4); experiment: Inhibition of pig brain GSK3beta using GS1 as substrate after 30 mins
Chain of Glycogen synthase kinase 3 beta (B2LUN4 whole entry): as the sequence (P49841 whole entry) above, with V40M, T59A, T392S, A400T, T402A, A411T counted along it

[7] = system: HT-29; experiment: Cytotoxicity against human HT-29 cells at 20 uM after 2 days by MTT assay relative to control; assay type: functional
[8] = target: T2, Glycogen synthase kinase-3 beta; experiment: Inhibition of GSK3beta (unknown origin) at 20 uM using FITC-RRRRAAEELDSRAGS(PO4)PQL as substrate after 10 mins by capillary electrophoresis relative to control
Target sequence in this assay (P49841 whole entry, looked up): as the sequence (P49841 whole entry) above

[9] = species: Homo sapiens; experiment: Selectivity ratio of IC50 for PKCbeta2 (unknown origin) to IC50 for GSK3-beta (unknown origin)
[10] = Inhibition of GSK-3beta (unknown origin)
[11] = Oral bioavailability in Zucker fa/fa rat at 10 mg/kg; assay type: ADME, organism-based; conditions: in vivo
[12] = target: T2, Glycogen synthase kinase-3 beta; experiment: Inhibition of human GSK3beta using YRRAAVPPSPSLSRHSSPHQS(PO4)EDEEE-NH2 as substrate after 60 mins in presence of [33gammaP]-ATP by topcount method
Target sequence in this assay (P49841 whole entry): as the sequence (P49841 whole entry) above

Structure (SMILES): CCCCC(=O)Nc1n[nH]c2nnc(-c3ccccc3)cc12
- IC50 [2]: 4 nM

Structure (SMILES): Fc1ccc(/C=N/Nc2ncnc3c2cnn3-c2ccccc2)cc1
- IC50 [4]: 6.2 nM

Structure (SMILES): Oc1ccc2c(c1)OC[C@]1(O)Cc3cc(O)c(O)cc3[C@H]21 [BRAZILIN]
- IC50 [5]: 7.23 µM

Structure (SMILES): CCOC(=O)c1c2[nH]c3ccccc3c2c(-c2ccc(NC(=O)CCN(C)C)cc2)c2c(=O)[nH][s+]([O-])c12 (configuration not stated)
- IC50 [6]: 2800 nM

Structure (SMILES): O=C1Nc2ccccc2C1=Cc1cc(CN2CCN(c3ccccc3Cl)CC2)on1
- Activity [7]: 78%
- inhibition [8]: 72%

Structure (SMILES): Cc1ccc2ncc(C3=C(c4cn5c6c(cccc46)CN(C=O)C(N4CCCCC4)C5)C(=O)NC3=O)n2c1 (configuration not stated)
- IC50 [3]: 5.2 nM
- bioavailability [11]: 45%

Structure (SMILES): O=CN1Cc2cc(F)cc3c(C4=C(c5cnc6ccccn56)C(=O)NC4=O)cn(c23)CC1N1CCCCC1 (configuration not stated)
- IC50 [3]: 1.1 nM
- bioavailability [11]: 23%

Structure (SMILES): CCNC(=O)c1nnn(-c2nonc2N)c1CN1CCCCC1
- IC50 [12]: 280 nM

Further lines, results first:

- IC50 [1]: 25 nM
Structure (SMILES): O=C1NC(=O)C(c2cn(CCCO)c3ncccc23)=C1c1cnccn1

- IC50 [3]: 1.3 nM
Structure (SMILES): O=CN1Cc2cccc3c(C4=C(c5cnc6ccccn56)C(=O)NC4=O)cn(c23)CC1N1CCOCC1 (configuration not stated)

- Ratio IC50 [9]: > 385
- IC50 [10]: 26 nM
Structure (SMILES): O=C1NC(=O)C(c2cn(CCCO)c3ncccc23)=C1c1ncc(C(F)(F)F)cc1Cl

- Ratio IC50 [9]: 325
- IC50 [10]: 7 nM
Structure (SMILES): COc1ccccc1C1=C(c2cn(CCCNC(=O)OC(C)(C)C)c3ncccc23)C(=O)NC1=O

- IC50 [3]: 2 nM
Structure (SMILES): O=CN1Cc2cccc3c(C4=C(c5cnc6ccccn56)C(=O)NC4=O)cn(c23)CC1N1CCCCC1 (configuration not stated)

- IC50 [1]: 17 nM
Structure (SMILES): O=C1NC(=O)C2=C1c1cn(c3ncccc13)CCOCCOCCOCCn1cc2c2cccnc21

- IC50 [1]: 11 nM
Structure (SMILES): O=C1NC(=O)C2=C1c1cn(c3ncccc13)CCCCC(O)CCCCn1cc2c2cccnc21

- IC50 [3]: 1.6 nM
Structure (SMILES): CN(C)C1Cn2cc(C3=C(c4cnc5ccccn45)C(=O)NC3=O)c3cccc(c32)CN1C=O (configuration not stated)

- IC50 [3]: 1.3 nM
Structure (SMILES): CC(C)OC1Cn2cc(C3=C(c4cnc5ccccn45)C(=O)NC3=O)c3cccc(c32)CN1C=O (configuration not stated)
